In patent US12702715B2, “Targeted RNA degradation allows precision repurposing of protein-targeted small molecule medicines to RNA” (University of Florida Research Foundation, Incorporated, priority 2020, dated 2026):
Entries after “also recorded” stand apart in the source; their conditions may differ.

Tests used:
[1] = system: 3×2 RNA internal loop library (3×2 ILL); test: AbsorbArray 2DCS selection with Inforna fitness analysis; format: binding, human; conditions: Zobs>8
Protocol: Construction of AbsorbArray Small Molecule Microarrays. Microarrays were constructed as previously reported^4. Briefly, a 1% agarose solution was poured onto a glass slide and dried on the benchtop. A 200 nL aliquot of 68 hit compounds (10 mM in DMSO) was pinned onto the array from a 384-well plate using Biomek NXP Laboratory Automation Workstation. Slides were then dried overnight to obtain a thin, invisible agarose layer. Slides were washed three times with 1×PBST^5 and then three times with nanopure water. Slides were dried completely in the air before RNA selection, completed by Two-Dimensional Combinatorial Screening (2DCS).
RNA Selection and Screening by 2DCS. The 3×2 RNA ILL was 5′-end ^32P-labeled as previously described^7 and 2DCS selections were completed as previously described 4. All oligonucleotides were folded as described in the “Solution-based Dye Displacement Assay” section. Small molecule microarrays were pre-equilibrated by 3 mL 1× AB2 for 5 min. After removing the pre-equilibration buffer, 5′-end labeled folded 3×2 RNA ILL (~50,000 cpm) was added in 3 mL 1× AB2 containing 1 mM MgCl2 in the presence of competitor oligonucleotides (100 μM each). The oligonucleotide solution was evenly distributed across the microarray surface with a custom-cut piece of Parafilnm. After incubating for 30 min at room temperature, the Parafilm was removed, and the slide was washed gently by submersion in 1× AB2 for 30 s. This washing step was repeated three additional times, and the array was dried on the benchtop for 1 h. […] To harvest and collect the bound RNAs from the ILL, 1 μL of nanopure water was added to each spot. After 30 s, the water drop was absorbed into agarose gel, hydrating it such that it could be excised with a toothpick. The RNAs were eluted from the agarose by simple incubation with water, and then treated with RNase-free DNase I. A unique barcode for each small molecule was installed by reverse transcription (RT). Barcoded RNAs were amplified by PCR, purified, and identified by next-generation sequencing (NGS) using an Ion Proton deep sequencer using PI chips (60-80 million reads) as previously described^2.

[2] = target: T1, RNase L / pre-miR-21 ternary complex (Homo sapiens, UniProt Q05823); test: RNase L immunoprecipitation; format: cell-based; conditions: 1 μM, MDA-MB-231
T1 construct: endogenous in cells; host or cells: MDA-MB-231
T1 sequence (Q05823 1-741): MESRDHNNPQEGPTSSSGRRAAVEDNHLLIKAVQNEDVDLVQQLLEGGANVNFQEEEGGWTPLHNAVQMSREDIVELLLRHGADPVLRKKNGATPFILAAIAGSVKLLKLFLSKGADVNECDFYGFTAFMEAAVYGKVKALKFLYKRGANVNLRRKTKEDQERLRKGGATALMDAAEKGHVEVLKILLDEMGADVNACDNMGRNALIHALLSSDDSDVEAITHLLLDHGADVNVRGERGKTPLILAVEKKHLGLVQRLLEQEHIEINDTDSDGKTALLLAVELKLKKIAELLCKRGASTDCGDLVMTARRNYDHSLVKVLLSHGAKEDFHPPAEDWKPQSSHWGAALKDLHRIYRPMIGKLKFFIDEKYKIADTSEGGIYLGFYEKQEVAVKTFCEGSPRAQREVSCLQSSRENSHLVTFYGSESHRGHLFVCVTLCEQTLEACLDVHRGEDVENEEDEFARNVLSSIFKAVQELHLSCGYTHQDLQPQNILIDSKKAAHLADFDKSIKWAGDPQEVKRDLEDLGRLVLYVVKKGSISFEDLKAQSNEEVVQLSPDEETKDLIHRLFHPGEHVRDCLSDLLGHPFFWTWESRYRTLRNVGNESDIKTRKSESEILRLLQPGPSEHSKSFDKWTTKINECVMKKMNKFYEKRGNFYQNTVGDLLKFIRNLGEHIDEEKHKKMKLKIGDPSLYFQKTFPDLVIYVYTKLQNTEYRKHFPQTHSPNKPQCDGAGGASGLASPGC
Protocol: RNase L Immunoprecipitation. MDA-MB-231 cells were seed in 6-well plates and were treated with vehicle, 4 (1 μM) or 5 (1 μM) when the cells reached ~70% confluency. After 48 h, the cells were harvested and lysed in 100 μL of M-PER buffer containing protease inhibitor and RNaseOUT recombinant Ribonuclease Inhibitor (Invitrogen) on ice for 20 min. The lysate was centrifuged at 13,000×g for 15 min, and the supernatants were incubated with Dynabeads Protein A (Life Technologies) bound to RNase L mouse primary antibody or β-actin mouse primary antibody overnight at 4° C. After incubation, the beads were washed with 1×DPBS containing 0.02% (v/v) Tween-20, and RNA was extracted by using a miRNeasy Mini Kit (Qiagen) per the manufacturer's instructions. RT-qPCR was performed as described above. Relative RNA levels were determined by ΔΔCt method by normalizing to 18S rRNA levels. Normalized fold change was calculated as previously described^6.

pre-miR-21 = test: RT-qPCR of pre-miR-21 levels in MDA-MB-231 cells; format: cell-based, human; conditions: MDA-MB-231, RT-qPCR
Protocol: Cell Culture. Cells were cultured at 37° C. and 5% CO2. MDA-MB-231 cells (HTB-26, ATCC) were cultured in RMPI 1640 medium with L-glutamine & 25 mM HEPES supplemented with 1× Antibiotic/Antimycotic solution (Corning) and 10% FBS. MCF-10A cells (CRL-10317, ATCC) were cultured in 1×DMEM/F12 50/50 with L-glutamine & 15 mM HEPES (Corning) supplemented with 20% FBS, 1× Antibiotic/Antimycotic solution, 20 ng/mL human epidermal growth factor (Pepro Tech, Inc.), 10 μg/mL insulin (Sigma-Aldrich), and […] hydrocortisone (Pfaltz & Bauer). For compound treatment, compound stocks either in DMSO or water were diluted in growth medium and added to cells for the indicated time. Plasmid DNA to overexpress pre-miR-21 in pcDNA 3.1 (Addgene 21114) or a plasmid DNA encoding the pre-miR-21 mutant (custom purchased from GenScript USA, Inc.) was transfected with jetPRIME per the manufacturer's protocol. After transfection, the medium was replaced with growth medium containing the compound of interest, prepared as described above. The RNase L-targeting siRNA or a control siRNA was transfected with Lipofectamine RNAiMAX reagent (Invitrogen) per the manufacturer's protocol.
RNA Isolation and Quantitative Real-Time PCR (RT-qPCR). After treatment, total RNA was extracted and purified by using the Zymo Quick-RNA mini prep kit per the manufacturer's protocol. Reverse Transcription (RT) for mature miRNAs as well as pri- and pre-miR-21 was completed on 200 ng of RNA by using a miScript 11 RT kit (QIAGEN) according to manufacturer's protocol. RT of mRNAs was performed by using QScript kit (Quanta Bio). An Applied Biosystems QS5 384-well PCR system was used to complete qPCR experiments using Power Sybr Green Mater Mix (Life Technologies) as described previously^6.

FLT3 = target: T2, FLT3 (Homo sapiens, UniProt P36888); test: Cellular Chem-CLIP/C-Chem-CLIP to study occupancy of an RTK; format: cell-based; conditions: 0.01-10 μM pre-treatment
T2 construct: endogenous in cells; host or cells: MDA-MB-231
T2 sequence (P36888 27-993): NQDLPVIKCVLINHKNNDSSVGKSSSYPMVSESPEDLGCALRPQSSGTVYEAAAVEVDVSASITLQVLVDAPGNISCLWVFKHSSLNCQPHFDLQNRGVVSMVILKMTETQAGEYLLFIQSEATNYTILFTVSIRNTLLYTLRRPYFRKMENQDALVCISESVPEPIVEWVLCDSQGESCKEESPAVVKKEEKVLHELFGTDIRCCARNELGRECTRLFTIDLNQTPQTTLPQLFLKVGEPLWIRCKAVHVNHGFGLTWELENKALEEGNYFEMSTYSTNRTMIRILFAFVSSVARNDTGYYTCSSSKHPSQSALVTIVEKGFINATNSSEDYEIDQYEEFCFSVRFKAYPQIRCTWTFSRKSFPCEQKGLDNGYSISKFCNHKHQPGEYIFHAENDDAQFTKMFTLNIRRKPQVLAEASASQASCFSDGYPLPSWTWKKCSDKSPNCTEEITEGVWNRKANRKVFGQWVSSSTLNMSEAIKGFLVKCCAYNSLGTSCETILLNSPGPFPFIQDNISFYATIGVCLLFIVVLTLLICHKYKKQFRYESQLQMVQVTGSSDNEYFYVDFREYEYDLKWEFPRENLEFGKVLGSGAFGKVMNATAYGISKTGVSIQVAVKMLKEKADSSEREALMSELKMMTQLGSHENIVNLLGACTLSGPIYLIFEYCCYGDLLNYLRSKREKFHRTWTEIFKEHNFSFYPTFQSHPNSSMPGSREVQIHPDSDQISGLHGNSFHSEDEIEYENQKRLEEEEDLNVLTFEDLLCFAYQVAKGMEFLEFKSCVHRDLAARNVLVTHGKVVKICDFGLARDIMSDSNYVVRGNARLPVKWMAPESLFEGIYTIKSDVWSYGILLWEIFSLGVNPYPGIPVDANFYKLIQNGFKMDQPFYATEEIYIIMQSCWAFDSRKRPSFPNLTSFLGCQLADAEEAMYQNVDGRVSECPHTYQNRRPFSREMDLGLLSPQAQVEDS
Protocol: Cellular Chem-CLIP/C-Chem-CLIP to Study Occupancy of an RTK. Compound treatment and isolation of cells was completed as described for cellular occupancy studies of pre-miR-21. Total protein was extracted and concentration determined as described in the “Western Blotting” section. Approximately 1 mg of total protein was used for following pull-down experiments, using a protocol adapted from a previously published method 8. Protein cross-linked to the probe were clicked to disulfide biotin azide as described above except the amount of each reagents was doubled (20 μL/sample). Then, to the mixture was added ice-cold, 4:1 mixture of methanol/chloroform (2.5 mL) followed by 1 mL of ice-cold 1×DPBS. The mixture was centrifuged at 5000×g for 10 min at 4° C. to fractionate a protein interphase between organic and aqueous layers. […] The washed protein mixture was centrifuged at 5000×g for 10 min at 4° C. to pellet the protein. The pellet was dissolved in H2O, and to this solution was added 20 μLL streptavidin beads for 30 min at room temperature. The solution was removed, and the beads were washed once with 0.2% SDS in 1×DPBS, twice with detergent-free 1×DPBS and twice with nanopure water. After these washing steps, protein was cleaved as described above. The supernatant was collected, and protein concentration was determined with Pierce Micro BCA Protein Assay kit. […] Sample preparation was completed as described above for cellular Chem-CLIP studies. Western blotting was performed on total protein (10 μg) before or after pull-down, indicated as “Input” or “Output”, as described in Western Blotting.

SMILES	number of binding RNA motifs [1]	enrichment of pre-miR-21 in RNase L immunoprecipitation [2]	pre-miR-21 levels (pre-miR-21)	competition of FLT3 enrichment by probe 4 (FLT3)
CCOC(=O)C1=C(Nc2ccccc2)S/C(=C\c2ccc(OCCOCCOCCOCCNC(C)=O)c(O)c2)C1=O [Compound 6]	–	not	had no effect	–
CCCNC(=O)NCCN1CCN(c2ccc3[nH]c(-c4c(N)c5c(F)cccc5[nH]c4=O)nc3c2)CC1 [Compound 8]	–	–	–	competed off
CCOC(=O)C1=C(Nc2ccccc2)S/C(=C\c2ccc(O)c(OCCOCCOCCOCCNC(=O)NCCN3CCN(c4ccc5[nH]c(-c6c(N)c7c(F)cccc7[nH]c6=O)nc5c4)CC3)c2)C1=O [Compound 7]	–	not	increasing pre-miR-21 levels	competed off; also recorded: between that observed for 1 and 2

Second part, led by results:

number of binding RNA motifs [1]	enrichment of pre-miR-21 in RNase L immunoprecipitation [2]	SMILES	pre-miR-21 levels (pre-miR-21)	competition of FLT3 enrichment by probe 4 (FLT3)
278	–	NCCCNc1ccc2c3c(nn2CCNCCO)-c2c(O)ccc(O)c2C(=O)c13 [Piroxantrone]	–	–
274	–	CN1c2ccccc2Sc2ccc(CC(=O)O)cc21 [Metiazinic Acid]	–	–
284	–	COc1ccc(NC(=O)[C@H](CCCCN)NC(=O)c2cc(NC(=O)[C@H](CCCCN)NC(=O)c3cc(NC(=O)[C@H](CCCCN)NC(=O)c4cc(NC(=O)[C@@H](N)CCCCN)ccc4OC)ccc3OC)ccc2OC)cc1C(N)=O [Delparantag]	–	–
